Data reported in patent EP0287819A1, “5-(phenyl or phenoxyalkyl)-3-(2-furanyl or 2-thienyl)-3-(1H-imidazol-1-ylmethyl)-2-methylisoxazolidines” (FISONS CORPORATION, priority 1987, dated 1988).
Converted amounts (≈) assume the structure as drawn.

What was measured:
Experiment in all cases: in vitro antifungal activity, broth and agar testing techniques
Format in all cases: cell-based
Aspergilius fumigatus = conditions: for activity: in vitro; for MIC: one range stated jointly for Examples 5, 6 and 10 and the three fungi, read-out: minimum inhibitory concentration MIC
Text: (§1) The compounds of this invention are useful as antifungal agents.

Candida albicans = conditions: for inhibitory activity: in vitro; for MIC: one range stated jointly for Examples 5, 6 and 10 and the three fungi, read-out: minimum inhibitory concentration MIC
Text: as §1

Trichophyton rubrum = conditions: for activity: in vitro; for MIC: one range stated jointly for Examples 5, 6 and 10 and the three fungi, read-out: minimum inhibitory concentration MIC
Text: as §1

[1] = system: Trichophyton schoenleinii
Text: as §1

[2] = system: Trichophyton mentagrophytes
Text: as §1

Trichophyton tonsurans = system: Trichophyton tonsurans
Text: as §1

Epidermophyton floccosum = system: Epidermophyton floccosum
Text: as §1

Structure (SMILES) | activity (Aspergilius fumigatus) | MIC (Aspergilius fumigatus) [µg/mL] | inhibitory activity (Candida albicans) | MIC (Candida albicans) [µg/mL] | activity (Trichophyton rubrum) | MIC (Trichophyton rubrum) [µg/mL] | inhibitory activity [1] | inhibitory activity [2] | inhibitory activity (Trichophyton tonsurans) | inhibitory activity (Epidermophyton floccosum)
Cc1ccc(SCC2CC(Cn3ccnc3)(c3cccs3)N(C)O2)cc1 (single isomer, unassigned) [Example 10, 3-(1H-Imidazol-1-ylmethyl)-2-methyl-5-[[(4-methylphenyl)thio]methyl]-3-(2-thienyl)isoxazolidine] | good to moderate | 0.2 to 70 (≈ 0.519 to 182 µM) | good to moderate | 0.2 to 70 (≈ 0.519 to 182 µM) | good to moderate | 0.2 to 70 (≈ 0.519 to 182 µM) | – | – | – | –
CN1OC(c2ccccc2)CC1(Cn1ccnc1)c1cccs1 (single isomer, unassigned) [Example 5, 3-(1H-Imidazol-1-ylmethyl)-2-methyl-5-phenyl-3-(2-thienyl)isoxazolidine] | good to moderate | 0.2 to 70 (≈ 0.615 to 215 µM) | good to moderate | 0.2 to 70 (≈ 0.615 to 215 µM) | good to moderate | 0.2 to 70 (≈ 0.615 to 215 µM) | – | – | – | –
CN1OC(c2ccc(Cl)cc2)CC1(Cn1ccnc1)c1ccco1 (single isomer, unassigned) [Example 1, 5-(4-Chlorophenyl)-3-(2-furanyl)-3-(1H-imidazol-1-ylmethyl) -2-methylisoxazolidine] | – | – | good to moderate | – | – | – | good to moderate | good to moderate | good to moderate | good to moderate
CN1OC(COc2ccc(Cl)cc2)CC1(Cn1ccnc1)c1ccco1 (single isomer, unassigned) [Example 3, 5-(4-Chlorophenoxymethyl)-3-(2-furanyl)-3-(1H-imidazol-1-ylmethyl)-2-methylisoxazolidine] | – | – | good to moderate | – | – | – | good to moderate | good to moderate | good to moderate | good to moderate
CN1OC(c2ccc(Cl)cc2)CC1(Cn1ccnc1)c1cccs1 (single isomer, unassigned) [Example 6, 5-(4-Chlorophenyl)-3-(1H-imidazol-1-ylmethyl)-2-methyl-3-(2-thienyl)isoxazolidine] | good to moderate | 0.2 to 70 (≈ 0.556 to 195 µM) | good to moderate | 0.2 to 70 (≈ 0.556 to 195 µM) | good to moderate | 0.2 to 70 (≈ 0.556 to 195 µM) | – | – | – | –
